From PubChem BioAssay AID179 (DTP/NCI, 2004)
The source made the active and inactive calls.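 How the source made its calls: active means compounds giving half or more protection of infected cells from virus-caused growth loss, again on retest; inactive means the rest.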 Where a SMILES comes first, the peptide text is derived from it. [ ]: non-standard residue; d: D form. The star is where a group is joined. ξ: configuration not given here. ξD = NC(CC(=O)O)C(=O)O; Ac3c = NC1(C(=O)O)CC1; Boc = CC(C)(C)OC(=O)*; OBn = c1ccc(CO*)cc1

Test system: CEM cells HIV-1 protection, formazan growth assay
Assay: NCI AIDS Antiviral Assay
Details: for IC50: measured here: growth of uninfected CEM cells
Summary of the method: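 Screen of anti-HIV-1 activity in human CEM cells using a formazan-based growth measurement at five drug concentrations. Hits with 50% or greater protection were repeated, and confirmation required reproducible complete protection.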

| Compound | EC50 [µM] | IC50 [µM] | outcome |
| --- | --- | --- | --- |
| COC1/C=C/OC2(C)Oc3c(C)c(O)c4c(O)c(c(/C=N/Nc5ncccn5)c(O)c4c3C2=O)NC(=O)C(C)=C/C=C/C(C)C(O)C(C)C(O)C(C)C(OC(C)=O)C1C (centres undefined) | > 151 | 9.12 |  |
| OC(CCN1CCCCCC1)(Cc1ccccc1)c1ccccc1 (centres undefined) | > 200 | 81.3 |  |
| CC(=O)OCCn1c(Cc2ccc(C)cc2)nn(C(C)=O)c1=O | > 200 | > 200 |  |
| COC(=O)N/N=C(\C(=O)Nc1cccc([N+](=O)[O-])c1)c1nc2ccc([N+](=O)[O-])cc2[nH]c1=O | > 148 | > 148 |  |
| Cc1c(NC(=O)C(=O)N=NC(=O)c2ccncc2)c(O)c2ccccc2c1O |  |  | inactive |
| CC1=C(C(=O)NNC(=O)c2ccccc2)CC(C(=O)NNC(=O)c2ccccc2)=C(C)N1 | > 200 | > 200 |  |
| CCOC(CN=C=S)OCC | > 200 | 27.5 |  |
| COc1ccc(C2=C(N)c3c(OC)cccc3C2=O)cc1 | > 200 | > 200 |  |
| ClC1C(Cl)C2CC1C1CC3OC3C21 (centres undefined) | > 200 | > 200 |  |
| O=C1NC(=O)C2C(=O)NC(=O)C1C2(c1ccccc1)c1cc[nH]c1 (centres undefined) | > 22.4 | 16.6 |  |
| Cc1ccc2nc(-c3ccccc3)c(N=O)n2c1 | > 200 | 170 |  |
| Cc1nn(C)c2nc3ccc(Cl)cc3c(-c3ccccc3)c12 | > 200 | > 200 |  |
| CC(=O)O[C@@H]1CC[C@]2(C)C3C[C@H](OC(C)=O)[C@]4(C)C(C(C)CCc5nc6ccccc6o5)CCC4C3[C@H](OC(C)=O)C[C@@H]2C1 (some centres undefined) | > 50.1 | 8.51 |  |
| CCOP(=O)(OCC)C(C1OC(n2ccc(=O)[nH]c2=O)C(O[Si](C)(C)C(C)(C)C)C1O[Si](C)(C)C(C)(C)C)N(C)O (centres undefined) | > 200 | 4.79 |  |
| [O-]/C(=C\[P+](c1ccccc1)(c1ccccc1)c1ccccc1)c1ccccc1 | > 200 | 32.4 |  |
| CCOC(=O)/C(C#N)=c1/s/c(=C(\O)N/N=C/c2ccc(OC)cc2)c(=N)n1-c1ccccc1 | > 4.27 | > 4.27 |  |
| O=C(Nc1ccc(/C=C/c2ccc(NC(=O)c3ccc(N=Nc4cc(S(=O)(=O)O)c5cccnc5c4O)cc3)cc2S(=O)(=O)O)c(S(=O)(=O)O)c1)c1ccc(N=Nc2cc(S(=O)(=O)O)c3cccnc3c2O)cc1 | 17.8 | > 100 |  |
| COC(=O)[C@@]12CCCC(=O)[C@@H]1[C@H]1CCC[C@H]12 | 112 | > 200 |  |
| COCCOCOC(C)(C)[C@H](CCOC(C)=O)O[Si](c1ccccc1)(c1ccccc1)C(C)(C)C |  |  | inactive |
| CC(C)(CO)N=Cc1ccccc1[O-].CC(C)(CO)N=Cc1ccccc1[O-].[Co+2] | > 151 | > 151 |  |
| CC(=O)NC1=C(C)C(=O)c2c(nc3n2CCC3OC(=O)CCl)C1=O (centres undefined) | > 200 | 1.48 |  |
| CC(=O)N(C)c1ccc(N=CN(C)C)cc1 | > 200 | > 200 |  |

| Compound | EC50 [µM] | IC50 [µM] | outcome |
| --- | --- | --- | --- |
| O=C1c2ccccc2C(=O)N1N1CC1c1ccccc1 (centres undefined) | > 200 | 138 |  |
| Cc1cc(/C=C/c2cc[n+](C)c3ccccc23)c(O)c2ncccc12 | > 398 | 0.759 |  |
| CC1C2(C)OCC(C#N)(C(=N)O2)C1(C#N)C#N (centres undefined) | > 200 | 20.9 |  |
| N=c1oc2cc(O)c(O)cc2cc1C(N)=O | > 8.32 | 7.41 |  |
| COc1ccc(CCc2nccn2C)cc1OC | > 200 | > 200 |  |
| COc1cc2c(=O)cnoc2cc1O | > 200 | 26.3 |  |
| COC(=O)CN(CC(=O)NCCNC(=O)OC(C)(C)C)C1CCCCC1N(CC(=O)OC)CC(=O)OC (centres undefined) | > 200 | > 200 |  |
| S=C1NC(c2cccs2)N2C(=S)NC(c3cccs3)N12 (centres undefined) | > 200 | > 200 |  |
| CCOC(=O)C12C3CCC1C2C(=O)C3 (centres undefined) |  |  | inactive |
| O=C1CCN=C(NC(=O)C(F)(F)F)N1CCc1c[nH]c2ccccc12 | > 200 | > 200 |  |
| CC(C)(C)c1cc2c(c(C(C)(C)C)c1O)CC(=O)O2 | > 200 | 41.7 |  |
| CCCCNC(=S)OCCC(C)CCCC(C)C (centres undefined) |  |  | inactive |
| CCOP(=S)(N/N=C1/CCCC(C)C1)OCC (centres undefined) | > 200 | 102 |  |
| COc1ccc(-c2cc(-c3ccccc3)c(C#N)c(=O)n2C2OC(CO)C(O)C(O)C2O)cc1 (centres undefined) | > 21.4 | > 21.4 |  |
| CC(SCCCCCCSC(C)C(=O)O)C(=O)O (centres undefined) | > 851 | > 851 |  |
| CC1(C)OC(=O)C(=Cc2cccc(Cl)c2)C(=O)O1 | > 490 | > 200 |  |
| C/C=C(\C)C(=O)OCC12C(OC(C)=O)CC(C)C(C)(CCC3=CC(=O)OC3)[C@H]1CCCC21CO1 (some centres undefined) | > 75.9 | > 75.9 |  |
| CC(C)(C)C[PH+](CC[PH+](CC(C)(C)C)CC(C)(C)C)CC(C)(C)C.[C-]#[O+].[C-]#[O+].[C-]#[O+].[C-]#[O+].[Mo] | > 3.47 | > 3.47 |  |
| O=C(O)c1ccccc1C(=O)OCC1CCCN2CCCCC12 (centres undefined) | > 151 | > 151 |  |
| CCCCCCCCCCCC(=O)N(C)CCS(=O)(=O)O |  |  | inactive |
| [O-]/[N+]1=[N+](\[O-])c2ccccc2CCCc2ccccc21 | > 269 | > 269 |  |
| Cc1cc(C)c(-c2noc(-c3ccc(Cl)cc3)c2C2=NCCN2)c(C)c1 |  |  | inactive |

| Compound | EC50 [µM] | IC50 [µM] | outcome |
| --- | --- | --- | --- |
| Cc1c(/C=N/NS(=O)(=O)c2ccccc2)no[n+]1[O-] | > 891 | > 200 |  |
| CCOC(=O)/C(=C\c1ccc(Cl)cc1)[Se]c1ccccc1 | > 97.7 | > 97.7 |  |
| CCN1CCC(O)(c2ccc(Oc3ccccc3)cc2)C(C(=O)c2ccc(Oc3ccccc3)cc2)C1 (centres undefined) | > 200 | 13.2 |  |
| CC1(C)CCC(C)(C)c2cc(NC(=O)c3ccc(C(=O)O)cc3)ccc21 | > 200 | 95.5 |  |
| Cc1cc(C)c(C)c(-n2[nH]c(=O)n(C)c2=O)c1C | > 200 | > 200 |  |
| [C-]#[N+]CS(=O)(=O)c1ccc(C)cc1 | > 479 | > 479 |  |
| CC(=O)OC1CCC2(C)C(C1)CC(OC(C)=O)C1C2CC(OC(C)=O)C2(C)C(C(C)CC(=O)C(=O)c3ccccc3)CCC12 (centres undefined) | > 6.17 | 2.63 |  |
| CN(Cc1cnc2nc(N)nc(N)c2n1)c1ccc(C(=O)NC(CCC(=O)O)C(=O)O)c2ccccc12 (centres undefined) | > 0.2 | 0.00219 |  |
| Clc1ccccc1CSc1ccc2nncc(SCc3ccccc3Cl)c2c1 | > 34.7 | > 34.7 |  |
| Cc1ccc(N=C2SC(c3ccc(C)cc3)(c3ccc(C)cc3)c3ccccc32)cc1 | > 200 | > 200 |  |
| CCOC(=O)/C(=C\n1c(=O)sc2ccccc21)C(=O)c1ccccc1 | > 200 | 42.7 |  |
| O=C(NC(N1CCN(c2cc3c(cc2F)c(=O)c(C(=O)O)cn3C2CC2)CC1)(C(F)(F)F)C(F)(F)F)c1ccccc1 | > 200 | 105 |  |
| COc1ccc(N2C(=O)c3c(c4[nH]c5ccc(OC)cc5c4c4ccc(C(C)(C)C)cc34)C2=O)cc1 | > 11 | > 11 |  |
| CN1CCOC(C(NC(=O)c2ccccc2)c2ccccc2)C1=O (centres undefined) | > 200 | > 200 |  |
| O=C1CN2C=CC=CC2=NN1 | > 603 | 407 |  |
| CC(=O)O[C@H]1[C@@H]2CC(C)(C)CC2=C(C=O)C2(C=O)CC12C (some centres undefined) | > 200 | 13.5 |  |
| CCN(CC)CCC(=O)/C=C/c1ccc(Cl)c(Cl)c1 | > 200 | 5.13 |  |
| CCN1CCC(O)(c2ccc(Oc3ccc(C)cc3)cc2)C(C(=O)c2ccc(Oc3ccc(C)cc3)cc2)C1 (centres undefined) | > 200 | 3.8 |  |
| CCCCCCCCCCCCCCCC(=O)ON1C(=S)NC(C)(c2ccccc2)C1=S (centres undefined) | > 200 | 77.6 |  |
| C=CCNC(=S)/N=C/C(C(=O)Nc1ccccc1)=C(/C)O | > 200 | > 200 |  |
| CO/C=C/CCCN(C1CCCCC1)C(C#N)c1ccccc1 (centres undefined) | > 16.6 | > 16.6 |  |
| CCOC(=O)C1(C(C)C)OC2CCCCCN2C1=O (centres undefined) | > 589 | > 589 |  |

| Compound | EC50 [µM] | IC50 [µM] | outcome |
| --- | --- | --- | --- |
| COC(=O)C1(NC(=O)C(CC(=O)OCc2ccccc2)NC(=O)OC(C)(C)C)CC1 (centres undefined) (Boc-[ξD](OBn)-[Ac3c]-OMe) | > 200 | > 200 |  |
| CC1(C)CCCC(C)(C)N1[P-]C(=O)[P-]N1C(C)(C)CCCC1(C)C.[C-]#[O+].[C-]#[O+].[C-]#[O+].[C-]#[O+].[C-]#[O+].[C-]#[O+].[Fe].[Fe] (centres undefined) | > 2.24 | > 2.24 |  |
| N[C@@H](CCC(=O)NC(Cc1ccccc1)C(=O)NCP(=O)(O)O)C(=O)O (some centres undefined) | > 200 | > 200 |  |
| COC(=O)NC1(NC(=O)OC)NC(=O)c2cc(OC)c(OC)cc2N1 | > 200 | 12.9 |  |
| N#C/C(=C/NC(N)=S)C(N)=O | > 200 | > 200 |  |
| COc1cc2c3c(cccc3c1)C(=O)N(CCN1CCCC1)C2=O | > 200 | 2.45 |  |
| CCOC(=O)c1sc(SC)nc1NC(=O)c1ccccc1 | > 200 | > 200 |  |
| CC/C=C(\C(=C/CC)[N+](=O)[O-])[N+](=O)[O-] | > 200 | 3.31 |  |
| CC(=O)O.[Ag] | > 64.6 | 18.2 |  |
| O=C1/C(=C/c2ccc([N+](=O)[O-])cc2)Oc2cc(O)ccc21 | > 200 | 35.5 |  |
| CCN(CC)CCCNC(=O)Cc1ccccc1Nc1c(Cl)cccc1Cl | > 200 | 16.6 |  |
| O=C1NC(=O)C(SSC2C(=O)NC(=O)NC2=O)C(=O)N1 | > 200 | > 200 |  |
| OCc1ccc[n+](CCc2c[nH]c3ccccc23)c1 | > 759 | 316 |  |
| C1=c2ccccc2=C2C(=C(c3ccccc3)C(c3ccccc3)=NN2c2ccccc2)S1 | > 4.68 | > 4.68 |  |
| FC(F)(F)c1cccc(C=NC23CC4CC(CC(C4)C2)C3)c1 | > 17 | > 17 |  |
| COc1cc2c(cc1O)[C@H](C)C(c1ccccc1OC)O2 (some centres undefined) | > 66.1 | 3.98 |  |
| COc1ccc(NS(=O)c2ccc(-c3ccccc3)cc2)cc1 (centres undefined) | > 200 | 14.8 |  |
| Cc1ccc(S(=O)(=O)N/N=C(/c2ccccc2)c2ccsc2C)cc1 | > 200 | 29.5 |  |
| CCOC(=O)c1ccc(CS(=O)c2ccc(N)cc2)c([N+](=O)[O-])c1 (centres undefined) | > 102 | 26.9 |  |
